Test results reported in patent publication US9695155B2, “Herbicidal substituted pyrimidinyloxy benzene compounds” (E. I. DU PONT DE NEMOURS AND COMPANY, priority 2013, dated 2017).

Experiments:
kochia [1] = experiment: Test A preemergence; assay type: in vivo, Kochia scoparia; conditions: for Plant response rating, Kochia: 31 g ai/ha, 0 to 100 scale where 0 is no effect and 100 is complete control, visual, approximately 10 days; for Kochia plant response rating (0 to 100 scale): 125 g ai/ha
How it was run: (§1)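 Scoring: eye-based comparison with untreated controls, 0 for no effect through 100 for complete control, at about day 10. Treatments: directed soil spray preemergence; foliar spray postemergence on 2–10 cm plants at the one- to two-leaf stage. Medium: loam soil with sand.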

kochia [2] = experiment: Test A postemergence; assay type: in vivo, Kochia scoparia; conditions: 0 to 100 scale, 0 no effect, 100 complete control
How it was run: as §1

ragweed [3] = experiment: Test A preemergence; assay type: in vivo, Ambrosia elatior; conditions: for Plant response rating, Ragweed: 31 g ai/ha, 0 to 100 scale where 0 is no effect and 100 is complete control, visual, approximately 10 days; for Ragweed plant response rating (0 to 100 scale): 125 g ai/ha
How it was run: as §1

galium = experiment: Test A postemergence; assay type: in vivo, Galium aparine; conditions: 0 to 100 scale, 0 no effect, 100 complete control
How it was run: as §1

pigweed [4] = experiment: Test A postemergence; assay type: in vivo, Amaranthus retroflexus; conditions: 0 to 100 scale, 0 no effect, 100 complete control
How it was run: as §1

corn = experiment: Test A postemergence; assay type: in vivo, Zea mays; conditions: 0 to 100 scale, 0 no effect, 100 complete control
How it was run: as §1

wheat = experiment: Test A postemergence; assay type: in vivo, Triticum aestivum; conditions: 0 to 100 scale, 0 no effect, 100 complete control
How it was run: as §1

barnyardgrass [5] = experiment: Test B flooded paddy test; assay type: in vivo, Echinochloa crus-galli; conditions: Flood, 250 g ai/ha; 0 to 100 scale where 0 is no effect and 100 is complete control
How it was run: (§2)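 Plants were grown to the 2-leaf stage, then pots were flooded to 3 cm above the soil and compounds were applied directly into the paddy water. That depth was held throughout, and after 13 to 15 days in the greenhouse injury was rated visually against controls on a 0–100 scale (0 no effect, 100 complete control).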

Italian ryegrass [6] = experiment: Test A preemergence; assay type: in vivo, Lolium multiflorum; conditions: for Plant response rating, Ryegrass, Italian: 31 g ai/ha, 0 to 100 scale where 0 is no effect and 100 is complete control, visual, approximately 10 days; for Ryegrass, Italian plant response rating (0 to 100 scale): 125 g ai/ha
How it was run: as §1

rice = experiment: Test B flooded paddy test; assay type: in vivo, Oryza sativa; conditions: Flood, 250 g ai/ha; 0 to 100 scale where 0 is no effect and 100 is complete control
How it was run: as §2

giant foxtail [7] = experiment: Test A preemergence; assay type: in vivo, Setaria faberii; conditions: for Plant response rating, Foxtail, Giant: 31 g ai/ha, 0 to 100 scale where 0 is no effect and 100 is complete control, visual, approximately 10 days; for Foxtail, Giant plant response rating (0 to 100 scale): 125 g ai/ha
How it was run: as §1

pigweed [8] = experiment: Test A preemergence; assay type: in vivo, Amaranthus retroflexus; conditions: for Plant response rating, Pigweed: 31 g ai/ha, 0 to 100 scale where 0 is no effect and 100 is complete control, visual, approximately 10 days; for Pigweed plant response rating (0 to 100 scale): 125 g ai/ha
How it was run: as §1

barnyardgrass [9] = experiment: Test A preemergence; assay type: in vivo, Echinochloa crus-galli; conditions: for Plant response rating, Barnyardgrass: 31 g ai/ha, 0 to 100 scale where 0 is no effect and 100 is complete control, visual, approximately 10 days; for Barnyardgrass plant response rating (0 to 100 scale, 0 is no effect, 100 is complete control): 125 g ai/ha
How it was run: as §1

ragweed [10] = experiment: Test A postemergence; assay type: in vivo, Ambrosia elatior; conditions: 0 to 100 scale, 0 no effect, 100 complete control
How it was run: as §1

Italian ryegrass [11] = experiment: Test A postemergence; assay type: in vivo, Lolium multiflorum; conditions: 0 to 100 scale, 0 no effect, 100 complete control
How it was run: as §1

barnyardgrass [12] = experiment: Test A postemergence; assay type: in vivo, Echinochloa crus-galli; conditions: 0 to 100 scale, 0 no effect, 100 complete control
How it was run: as §1

Heteranthera limosa = experiment: Test B flooded paddy test; assay type: in vivo; conditions: Flood, 250 g ai/ha; 0 to 100 scale where 0 is no effect and 100 is complete control
How it was run: as §2

blackgrass = experiment: Test A postemergence; assay type: in vivo, Alopecurus myosuroides; conditions: 0 to 100 scale, 0 no effect, 100 complete control
How it was run: as §1

giant foxtail [13] = experiment: Test A postemergence; assay type: in vivo, Setaria faberii; conditions: 0 to 100 scale, 0 no effect, 100 complete control
How it was run: as §1

sedge, umbrella = experiment: Test B flooded paddy test; assay type: in vivo, Cyperus difformis; conditions: Flood, 250 g ai/ha; 0 to 100 scale where 0 is no effect and 100 is complete control
How it was run: as §2

| Compound | Plant response rating, Kochia (kochia [1]) | Kochia plant response rating (0 to 100 scale) (kochia [1]) | Plant response rating, Kochia (kochia [2]; 31 g ai/ha) | Plant response rating, Kochia (kochia [2]; 125 g ai/ha) | Plant response rating, Ragweed (ragweed [3]) | Ragweed plant response rating (0 to 100 scale) (ragweed [3]) | Plant response rating, Galium (galium; 31 g ai/ha) | Plant response rating, Galium (galium; 125 g ai/ha) | Plant response rating, Pigweed (pigweed [4]; 31 g ai/ha) | Plant response rating, Pigweed (pigweed [4]; 125 g ai/ha) | Plant response rating, Corn (corn; 31 g ai/ha) | Plant response rating, Corn (corn; 125 g ai/ha) | Plant response rating, Wheat (wheat; 31 g ai/ha) | Plant response rating, Wheat (wheat; 125 g ai/ha) | Plant response rating, Barnyardgrass (barnyardgrass [5]) | Plant response rating, Ryegrass, Italian (Italian ryegrass [6]) | Ryegrass, Italian plant response rating (0 to 100 scale) (Italian ryegrass [6]) | Plant response rating, Rice (rice) | Plant response rating, Foxtail, Giant (giant foxtail [7]) | Foxtail, Giant plant response rating (0 to 100 scale) (giant foxtail [7]) | also measured |
| --- | --- | --- | --- | --- | --- | --- | --- | --- | --- | --- | --- | --- | --- | --- | --- | --- | --- | --- | --- | --- | --- |
| FCc1cccc(Oc2ncc(Br)cn2)c1-n1cc(Cl)cn1 [Compound 251] | 10 | 70 | 40 | 60 | 0 | 30 | 20 | 30 | 60 | 70 | 0 | 20 | 0 | 0 | 0 | 0 | 0 | 0 | 50 | 80 | Plant response rating, Pigweed (pigweed [8]): 70; Pigweed plant response rating (0 to 100 scale) (pigweed [8]): 90; Plant response rating, Barnyardgrass (barnyardgrass [9]): 30; Barnyardgrass plant response rating (0 to 100 scale, 0 is no effect, 100 is complete control) (barnyardgrass [9]): 50; Plant response rating, Ragweed (ragweed [10]; 31 g ai/ha): 10; Plant response rating, Ragweed (ragweed [10]; 125 g ai/ha): 20; Plant response rating, Ryegrass, Italian (Italian ryegrass [11]; 31 g ai/ha): 0; Plant response rating, Ryegrass, Italian (Italian ryegrass [11]; 125 g ai/ha): 10; Plant response rating, Barnyardgrass (barnyardgrass [12]; 31 g ai/ha): 10; Plant response rating, Barnyardgrass (barnyardgrass [12]; 125 g ai/ha): 30; Plant response rating, Ducksalad (Heteranthera limosa): 75; Plant response rating, Blackgrass (blackgrass; 31 g ai/ha): 50; Plant response rating, Blackgrass (blackgrass; 125 g ai/ha): 70; Plant response rating, Foxtail, Giant (giant foxtail [13]; 31 g ai/ha): 30; Plant response rating, Foxtail, Giant (giant foxtail [13]; 125 g ai/ha): 60; Plant response rating, Sedge, Umbrella (sedge, umbrella): 40 |
| Cc1cn(-c2c(C#N)cccc2Oc2ncc(Cl)cn2)cn1 [Compound 260] | 0 | 0 | 50 | 60 | 0 | 0 | 50 | 60 | 50 | 60 | 0 | 10 | 0 | 0 | 0 | 0 | 0 | 0 | 0 | 0 | Plant response rating, Pigweed (pigweed [8]): 0; Pigweed plant response rating (0 to 100 scale) (pigweed [8]): 30; Plant response rating, Barnyardgrass (barnyardgrass [9]): 0; Barnyardgrass plant response rating (0 to 100 scale, 0 is no effect, 100 is complete control) (barnyardgrass [9]): 0; Plant response rating, Ragweed (ragweed [10]; 31 g ai/ha): 30; Plant response rating, Ragweed (ragweed [10]; 125 g ai/ha): 40; Plant response rating, Ryegrass, Italian (Italian ryegrass [11]; 31 g ai/ha): 0; Plant response rating, Ryegrass, Italian (Italian ryegrass [11]; 125 g ai/ha): 0; Plant response rating, Barnyardgrass (barnyardgrass [12]; 31 g ai/ha): 0; Plant response rating, Barnyardgrass (barnyardgrass [12]; 125 g ai/ha): 0; Plant response rating, Ducksalad (Heteranthera limosa): 0; Plant response rating, Blackgrass (blackgrass; 31 g ai/ha): 0; Plant response rating, Blackgrass (blackgrass; 125 g ai/ha): 0; Plant response rating, Foxtail, Giant (giant foxtail [13]; 31 g ai/ha): 0; Plant response rating, Foxtail, Giant (giant foxtail [13]; 125 g ai/ha): 0; Plant response rating, Sedge, Umbrella (sedge, umbrella): 0 |
| Cc1cc(C(F)(F)F)nn1-c1ccccc1Oc1ncc(Cl)cn1 [Compound 266] | 0 | 0 | 0 | 0 | 0 | 0 | 0 | 0 | 0 | 0 | 0 | 0 | 0 | 0 | 0 | 0 | 0 | 0 | 0 | 0 | Plant response rating, Pigweed (pigweed [8]): 0; Pigweed plant response rating (0 to 100 scale) (pigweed [8]): 0; Plant response rating, Barnyardgrass (barnyardgrass [9]): 0; Barnyardgrass plant response rating (0 to 100 scale, 0 is no effect, 100 is complete control) (barnyardgrass [9]): 0; Plant response rating, Ragweed (ragweed [10]; 31 g ai/ha): 0; Plant response rating, Ragweed (ragweed [10]; 125 g ai/ha): 0; Plant response rating, Ryegrass, Italian (Italian ryegrass [11]; 31 g ai/ha): 0; Plant response rating, Ryegrass, Italian (Italian ryegrass [11]; 125 g ai/ha): 0; Plant response rating, Barnyardgrass (barnyardgrass [12]; 31 g ai/ha): 0; Plant response rating, Barnyardgrass (barnyardgrass [12]; 125 g ai/ha): 0; Plant response rating, Ducksalad (Heteranthera limosa): 0; Plant response rating, Blackgrass (blackgrass; 31 g ai/ha): 0; Plant response rating, Blackgrass (blackgrass; 125 g ai/ha): 0; Plant response rating, Foxtail, Giant (giant foxtail [13]; 31 g ai/ha): 0; Plant response rating, Foxtail, Giant (giant foxtail [13]; 125 g ai/ha): 0; Plant response rating, Sedge, Umbrella (sedge, umbrella): 0 |
| Fc1cccc(Oc2ncc(Cl)cn2)c1-n1cc(OC(F)F)cn1 [Compound 271] | 70 | 100 | 70 | 100 | 0 | 20 | 70 | 100 | 70 | 100 | 20 | 30 | 0 | 40 | 0 | 0 | 10 | 0 | 40 | 100 | Plant response rating, Pigweed (pigweed [8]): 90; Pigweed plant response rating (0 to 100 scale) (pigweed [8]): 100; Plant response rating, Barnyardgrass (barnyardgrass [9]): 20; Barnyardgrass plant response rating (0 to 100 scale, 0 is no effect, 100 is complete control) (barnyardgrass [9]): 100; Plant response rating, Ragweed (ragweed [10]; 31 g ai/ha): 0; Plant response rating, Ragweed (ragweed [10]; 125 g ai/ha): 80; Plant response rating, Ryegrass, Italian (Italian ryegrass [11]; 31 g ai/ha): 0; Plant response rating, Ryegrass, Italian (Italian ryegrass [11]; 125 g ai/ha): 30; Plant response rating, Barnyardgrass (barnyardgrass [12]; 31 g ai/ha): 10; Plant response rating, Barnyardgrass (barnyardgrass [12]; 125 g ai/ha): 80; Plant response rating, Ducksalad (Heteranthera limosa): 90; Plant response rating, Blackgrass (blackgrass; 31 g ai/ha): 10; Plant response rating, Blackgrass (blackgrass; 125 g ai/ha): 80; Plant response rating, Foxtail, Giant (giant foxtail [13]; 31 g ai/ha): 10; Plant response rating, Foxtail, Giant (giant foxtail [13]; 125 g ai/ha): 90; Plant response rating, Sedge, Umbrella (sedge, umbrella): 60 |
| O=Cc1cn(-c2ccccc2Oc2ncc(Cl)cn2)nn1 [Compound 272] | 0 | 0 | 0 | 0 | 0 | 0 | 0 | 0 | 0 | 0 | 0 | 0 | 0 | 0 | 0 | 0 | 0 | 0 | 0 | 0 | Plant response rating, Pigweed (pigweed [8]): 0; Pigweed plant response rating (0 to 100 scale) (pigweed [8]): 0; Plant response rating, Barnyardgrass (barnyardgrass [9]): 0; Barnyardgrass plant response rating (0 to 100 scale, 0 is no effect, 100 is complete control) (barnyardgrass [9]): 0; Plant response rating, Ragweed (ragweed [10]; 31 g ai/ha): 0; Plant response rating, Ragweed (ragweed [10]; 125 g ai/ha): 0; Plant response rating, Ryegrass, Italian (Italian ryegrass [11]; 31 g ai/ha): 0; Plant response rating, Ryegrass, Italian (Italian ryegrass [11]; 125 g ai/ha): 0; Plant response rating, Barnyardgrass (barnyardgrass [12]; 31 g ai/ha): 0; Plant response rating, Barnyardgrass (barnyardgrass [12]; 125 g ai/ha): 0; Plant response rating, Ducksalad (Heteranthera limosa): 0; Plant response rating, Blackgrass (blackgrass; 31 g ai/ha): 0; Plant response rating, Blackgrass (blackgrass; 125 g ai/ha): 0; Plant response rating, Foxtail, Giant (giant foxtail [13]; 31 g ai/ha): 0; Plant response rating, Foxtail, Giant (giant foxtail [13]; 125 g ai/ha): 0; Plant response rating, Sedge, Umbrella (sedge, umbrella): 0 |
